{"source": "patent US5709992A", "about": "“Method for disinfecting red blood cells” (priority 1995, dated 1998)", "origin": "cited, not measured here", "target": "erythrocyte glutathione (GSH) peroxidase (Homo sapiens, UniProt P07203)", "sequence (P07203 whole entry)": "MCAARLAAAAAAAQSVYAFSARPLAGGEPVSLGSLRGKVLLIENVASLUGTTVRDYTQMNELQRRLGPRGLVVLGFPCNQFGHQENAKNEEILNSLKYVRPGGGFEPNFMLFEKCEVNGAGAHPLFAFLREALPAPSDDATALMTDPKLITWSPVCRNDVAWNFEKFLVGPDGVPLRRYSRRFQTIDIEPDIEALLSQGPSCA", "conditions": "read-out: Km (peroxide), effective at very low concentrations of peroxide"}
{"smiles": "OO", "note": "[peroxide, hydrogen peroxide]", "values": [{"measurement": "Km", "value": 1, "unit": "µM"}]}
